The source of these data is patent US10562912B2 (C&C Research Laboratories, priority 2013, dated 2020).

The IC50 is the midpoint of a concentration-inhibition curve. Higher therefore signals a need for much substance.

Where only a bound is given, the exact number is not on record here.

Holding throughout (type): cell-based
One test relates to LNCaP. Put plainly: Cell growth inhibition assay, prostate cancer cell line LNCaP (medium with 10 ng/mL IL-6). The following applies: Homo sapiens, medium supplemented with 10 ng/mL of IL-6, 10,000 cells/well.
Another test has as its system HEL92.1.7. The experiment in a line: Cell growth inhibition assay, blood cancer cell line HEL92.1.7. The following applies: Homo sapiens, HEL 92.1.7, HEL92.1.7 blood cancer cell line. The method, then: The inhibitory effects of the compounds of the present invention against the growth of cancer cells were evaluated as shown below. The cancer cell lines including stomach cancer cell line (AGS), breast cancer cell lines (MDA-MB-231, MDA-MB-468, and BT-549), prostate cancer cell lines (LNCaP and DU-145), colon cancer cell line (HCT116), ovarian cancer cell line (SW626), liver cancer cell line (Hep3B), kidney cancer cell line (ACHN), lung cancer cell line (NCI-H23) and blood cancer cell lines (HEL92.1.7 and U266) were cultured under the protocol provided by each supplier. A medium supplemented with 10 ng/mL of IL-6 was used for LNCaP, a prostate cancer cell line, when treated with a drug. Each type of cells to be used in experiments were sub-cultured in a 96-well plate by counting the exact number of cells using Tali™ Image-based Cytometer (Life Technologies). In a 96-well plate, AGS, HCT116, and DU-145 were employed with 3,000 cells/well; NCI-H23, SW626, Hep3B, ACHN, BT-549, MDA-MB-231, HEL92.1.7, and U266 were employed with 5,000 cells/well; and LNCaP and MDA-MB-468 were employed with 10,000 cells/well. The cells were treated with the compounds listed in Examples which were diluted in various concentrations. Upon completion of the compounds treatment, AGS, HCT116, SW626, DU145, NCI-H23, Hep3B, ACHN, BT-549, LNCaP, HEL92.1.7, and U266 cells were cultured at 37° C. under 5% CO2 for from 72 to 96 hours, and MDA-MB-231 and MDA-MB-468 cells were cultured at 37° C. in air for from 72 to 96 hours. Subsequently, the cells were observed under microscope and drug precipitation and particular findings were investigated and recorded. And then, the 96-well plate was placed at room temperature for 30 minutes, added with 20 μL/well of CellTiter-Glo solution (Cat No. G7573, Promega) and shaken for 10 minutes, followed by being subjected to the measurement using PHERAstar™ microplate reader (BMG LABTECH) according to the supplier's general luminometer protocol. Wells where only culture liquid added without cell plating were used as a negative control, whereas wells where culture liquid containing 0.1% DMSO instead of the compounds listed in Examples were used as a positive control.

A further test deals with T1, STAT3 (Homo sapiens, UniProt P40763).
T1 construct: plasmid pSTAT3-TA-luc), which contains a stably operating STAT3 promoter; endogenous in cells
Put plainly: STAT3 reporter gene assay (luciferase), LNCaP stable cell line (pSTAT3-TA-luc), IL-6 stimulation. Put shortly: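 Cytotoxicity was run on a duplicate plate with CellTiter-Glo, while the other plate gave luciferase read-outs from lysed LNCaP pSTAT3-TA-luc reporter cells. Cells were treated with graded compound concentrations plus IL-6 (10 ng/mL final) for 24–48 h in 3% DCC-FBS medium. Unstimulated and stimulated wells served as negative and positive controls.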
(In a reporter assay the amount or activity of a reporter protein is the signal.)

In another test the test system is DU-145. The experiment in a line: Cell growth inhibition assay, prostate cancer cell line DU-145. The following applies: Homo sapiens, DU-145 prostate cancer cell line. The procedure, abridged:
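Viability by CellTiter-Glo luminescence after 72–96 h of compound dosing at 37° C. under 5% CO2; DU-145 and HCT116 seeded at 3,000 cells/well, SW626 at 5,000 cells/well.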

T1 sequence (P40763 whole entry): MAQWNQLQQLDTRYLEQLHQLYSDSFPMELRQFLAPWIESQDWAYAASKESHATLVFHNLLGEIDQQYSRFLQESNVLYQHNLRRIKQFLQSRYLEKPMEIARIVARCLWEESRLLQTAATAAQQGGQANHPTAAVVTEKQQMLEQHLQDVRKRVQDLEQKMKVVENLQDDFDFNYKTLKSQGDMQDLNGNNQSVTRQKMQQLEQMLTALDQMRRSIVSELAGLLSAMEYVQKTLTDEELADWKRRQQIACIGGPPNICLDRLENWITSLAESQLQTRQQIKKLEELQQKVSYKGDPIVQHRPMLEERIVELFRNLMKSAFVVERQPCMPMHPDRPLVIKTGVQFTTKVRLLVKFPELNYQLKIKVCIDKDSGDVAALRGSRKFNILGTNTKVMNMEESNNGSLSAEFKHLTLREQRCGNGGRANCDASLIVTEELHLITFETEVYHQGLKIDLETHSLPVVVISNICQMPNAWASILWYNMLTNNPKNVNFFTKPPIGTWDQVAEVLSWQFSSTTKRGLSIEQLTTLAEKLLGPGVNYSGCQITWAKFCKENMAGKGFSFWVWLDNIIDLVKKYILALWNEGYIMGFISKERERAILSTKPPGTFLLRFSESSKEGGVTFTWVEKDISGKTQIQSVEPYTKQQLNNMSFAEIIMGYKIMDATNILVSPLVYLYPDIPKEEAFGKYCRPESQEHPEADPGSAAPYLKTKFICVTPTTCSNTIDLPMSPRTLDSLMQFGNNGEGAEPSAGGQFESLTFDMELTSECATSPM

As for `CC(C)(c1ccccc1)c1cc(Cl)cc(NC(=O)c2cc3cc(NS(C)(=O)=O)ccc3s2)c1` [Example 64, N-(3-chloro-5-(2-phenylpropan-2-yl)phenyl)-5-(methylsulfonamido)benzo[b]thiophene-2-carboxamide], the IC50 worked out at 0.1 µM with LNCaP, 0.11 µM in the test with HEL92.1.7, 0.065 µM against STAT3 and 0.043 µM in the test on DU-145.

In the case of `CC(C)Oc1cc(OC(F)(F)F)cc(C(C)(C)c2cc(Cl)cc(NC(=O)c3cc4c(N5CCOCC5)c(NS(C)(=O)=O)ccc4s3)c2)c1` [Example 66, N-(3-chloro-5-(2-(3-isopropoxy-5-(trifluoromethoxy)phenyl)propan-2-yl)phenyl)-5-(methylsulfonamido)-4-morpholinobenzo[b]thiophene-2-carboxamide], the IC50 with LNCaP was greater than 1.1 µM; in the test on HEL92.1.7, greater than 1.1 µM; on STAT3, greater than 10 µM; in the test on DU-145 it was greater than 1.1 µM.

`COc1cc(F)cc(C(C)(C)c2cc(Cl)cc(NC(=O)c3cc4cc(NS(C)(=O)=O)ccc4s3)c2)c1` [Example 67, N-(3-chloro-5-(2-(3-fluoro-5-methoxyphenyl)propan-2-yl)phenyl)-5-(methylsulfonamido)benzo[b]thiophene-2-carboxamide]: the IC50 in the test with LNCaP was found to be 0.037 µM; in the test with HEL92.1.7, 0.11 µM; against STAT3, 0.067 µM; with DU-145, 0.042 µM.

Turning to `CC(C)Oc1cc(OC(F)(F)F)cc(C(C)(C)c2cc(Cl)cc(NC(=O)c3nc4cc(NS(C)(=O)=O)ccc4s3)c2)c1` [Example 81, N-(3-chloro-5-(2-(3-isopropoxy-5-(trifluoromethoxy)phenyl)propan-2-yl)phenyl)-5-(methylsulfonamido)benzo[d]thiazole-2-carboxamide], the IC50 in the test on LNCaP was 0.15 µM; in the test on HEL92.1.7, 0.34 µM; against STAT3 it was 0.055 µM; with DU-145, 0.11 µM.

In the case of `CC(C)(c1cc(Cl)cc(NC(=O)c2cc3cc(NS(C)(=O)=O)ccc3s2)c1)c1cc(OCC(F)F)cc(OC(F)(F)F)c1` [Example 83, N-(3-chloro-5-(2-(3-(2,2-difluoroethoxy)-5-(trifluoromethoxy)phenyl)propan-2-yl)phenyl)-5-(methylsulfonamido)benzo[b]thiophene-2-carboxamide], the IC50 amounted to 0.025 µM in the test on LNCaP, 0.1 µM in the test with HEL92.1.7, 0.023 µM at STAT3 and 0.012 µM in the test on DU-145.

Take `CC(C)Oc1cc(OC(F)(F)F)cc(C(C)(C)c2cc(Cl)cc(NC(=O)c3cc4cc(NS(C)(=O)=O)c(F)cc4s3)c2)c1` [Example 84, N-(3-chloro-5-(2-(3-isopropoxy-5-(trifluoromethoxy)phenyl)propan-2-yl)phenyl)-6-fluoro-5-(methylsulfonamido)benzo[b]thiophene-2-carboxamide]: the IC50 in the test on LNCaP is 0.008 µM; with HEL92.1.7 it was 0.014 µM; at STAT3, 0.004 µM; in the test with DU-145, 0.002 µM.

`CC(C)(c1cc(F)cc(NC(=O)c2cc3cc(NS(C)(=O)=O)ccc3s2)c1)c1cc(OC(F)(F)F)cc(OC(F)(F)C(F)F)c1` [Example 85, N-(3-fluoro-5-(2-(3-(1,1,2,2-tetrafluoroethoxy)-5-(trifluoromethoxy)phenyl)propan-2-yl)phenyl)-5-(methylsulfonamido)benzo[b]thiophene-2-carboxamide]: the IC50 was found to be 0.025 µM in the test with LNCaP, 0.076 µM in the test on HEL92.1.7, 0.016 µM on STAT3 and 0.007 µM with DU-145.

In the case of `CC(C)(c1cc(F)cc(NC(=O)c2cc3cc(NS(C)(=O)=O)ncc3s2)c1)c1cc(OC(F)(F)F)cc(OC(F)(F)C(F)F)c1` [Example 86, N-(3-fluoro-5-(2-(3-(1,1,2,2-tetrafluoroethoxy)-5-(trifluoromethoxy)phenyl)propan-2-yl)phenyl)-5-(methylsulfonamido)thieno[2,3-c]pyridine-2-carboxamide], the 50% inhibitory concentration (IC50) in the test on LNCaP was determined as 0.075 µM; in the test on HEL92.1.7 it was 0.23 µM; against STAT3 it was 0.072 µM; in the test with DU-145, 0.047 µM.

With `CC(C)(c1cc(Br)cc(NC(=O)c2cc3cc(NS(C)(=O)=O)ccc3s2)c1)c1cc(OC(F)(F)F)cc(OC(F)(F)C(F)F)c1` [Example 87, N-(3-bromo-5-(2-(3-(1,1,2,2-tetrafluoroethoxy)-5-(trifluoromethoxy)phenyl)propan-2-yl)phenyl)-5-(methylsulfonamido)benzo[b]thiophene-2-carboxamide], the IC50 stood at 0.028 µM in the test with LNCaP, 0.091 µM in the test with HEL92.1.7, 0.016 µM against STAT3 and 0.009 µM with DU-145.

For `CC(C)(c1cc(Cl)cc(NC(=O)c2cc3cc(NS(C)(=O)=O)ccc3s2)c1)c1cc(OCC(F)(F)F)cc(OC(F)(F)F)c1` [Example 88, N-(3-chloro-5-(2-(3-(2,2,2-trifluoroethoxy)-5-(trifluoromethoxy)phenyl)propan-2-yl)phenyl)-5-(methylsulfonamido)benzo[b]thiophene-2-carboxamide], the IC50 in the test on LNCaP came out at 0.024 µM; in the test with HEL92.1.7, 0.087 µM; on STAT3, 0.015 µM; in the test with DU-145, 0.008 µM.

Take `CC(C)(c1cc(Br)cc(NC(=O)c2cc3cc(NS(C)(=O)=O)ncc3s2)c1)c1cc(OC(F)(F)F)cc(OC(F)(F)C(F)F)c1` [Example 89, N-(3-bromo-5-(2-(3-(1,1,2,2-tetrafluoroethoxy)-5-(trifluoromethoxy)phenyl)propan-2-yl)phenyl)-5-(methylsulfonamido)thieno[2,3-c]pyridine-2-carboxamide]: the IC50 in the test on LNCaP worked out at 0.07 µM; in the test on HEL92.1.7, 0.22 µM; against STAT3, 0.047 µM; with DU-145, 0.048 µM.

Consider `CC(C)(c1cc(Cl)cc(NC(=O)c2cc3cc(NS(C)(=O)=O)ccc3s2)c1)c1cc(OCCN2CCOCC2)cc(OC(F)(F)F)c1` [Example 90, N-(3-chloro-5-(2-(3-(2-morpholinoethoxy)-5-(trifluoromethoxy)phenyl)propan-2-yl)phenyl)-5-(methylsulfonamido)benzo[b]thiophene-2-carboxamide], for which the IC50 in the test with LNCaP turned out to be 0.22 µM; with HEL92.1.7, 0.23 µM; at STAT3, 0.043 µM; in the test with DU-145, 0.048 µM.

Turning to `CC(C)Oc1cc(Br)cc(C(C)(C)c2cc(Cl)cc(NC(=O)c3cc4cc(NS(C)(=O)=O)ccc4s3)c2)c1` [Example 91, N-(3-(2-(3-bromo-5-isopropoxyphenyl)propan-2-yl)-5-chlorophenyl)-5-(methylsulfonamido)benzo[b]thiophene-2-carboxamide], the IC50 with LNCaP is 0.056 µM; in the test with HEL92.1.7 it was 0.078 µM; on STAT3 it was 0.032 µM; with DU-145, 0.012 µM.

For `CC(C)Oc1cc(Cl)cc(C(C)(C)c2cc(Cl)cc(NC(=O)c3cc4cc(NS(C)(=O)=O)ccc4s3)c2)c1` [Example 92, N-(3-chloro-5-(2-(3-chloro-5-isopropoxyphenyl)propan-2-yl)phenyl)-5-(methylsulfonamido)benzo[b]thiophene-2-carboxamide], the IC50 stood at 0.071 µM in the test with LNCaP, 0.1 µM in the test on HEL92.1.7, 0.067 µM on STAT3 and 0.017 µM in the test on DU-145.

Turning to `CC(C)Oc1cc(OC(F)(F)F)cc(C(C)(C)c2cc(Cl)cc(NC(=O)c3cc4c(F)c(NS(C)(=O)=O)ccc4s3)c2)c1` [Example 93, N-(3-chloro-5-(2-(3-isopropoxy-5-(trifluoromethoxy)phenyl)propan-2-yl)phenyl)-4-fluoro-5-(methylsulfonamido)benzo[b]thiophene-2-carboxamide], the IC50 in the test with LNCaP was 0.055 µM; with HEL92.1.7, 0.12 µM; at STAT3, 0.091 µM; in the test on DU-145 it was 0.021 µM.
